Data taken from patent publication US8741853B2, “Mitochondria-targeting antioxidant therapeutics” (priority 2007, dated 2014).
Read-outs that look alike come from different tables or passages of the source.

Tests used:
[1] = system: mitochondrial membrane potential (ΔΨm) in SHSY-5Y neuroblastoma cells; conditions: FRET-based ΔΨm assay, reference agent, cited from earlier work
[2] = system: mitochondrial membrane potential (ΔΨm) in SHSY-5Y neuroblastoma cells; assay: FRET-based ΔΨm assay (NAO/TMRE), compound alone and Ca2+-induced ΔΨm collapse; assay type: cell-based; conditions: concentration not given; for B-C response, typical values: reference agents alone; for % Ca^2+ response score (comparison agents): reference agents
[3] = humans; cited from earlier work
[4] = system: human tumor cell lines FaDu and Jurkat, Ki-v-Ras-transformed Balb/c-3T3 murine mesenchymal cell line; conditions: cited from earlier work
[5] = system: caspase-3 activation in SHSY-5Y cells; assay: Caspase-3 activation induced by ethacrynic acid plus thapsigargin; assay type: cell-based; conditions: positive control, 24 hr ethacrynic acid/thapsigargin stress
Method: The potential ability of test compound Nos. 1-10 individually to moderate caspase activation was therefore examined using SHSY-5Y cells, in accordance with the Dykens assay.
In the Dykens assay method, caspase activation is induced by 24 hr exposure to a combined stress of ethacrynic acid (25 to derivatize glutathione and induce oxidative stress, and thapsigargin (1 μM), to induce a chronic increase in cytosolic Ca^2+. Caspase activity is determined using a fluorogenic substrate, with rates normalized to cell number; and is expressed as % response of controls on every plate exposed to ethacrynate and thapsigargen in the absence of compound. Compound Nos. 1-10 at 10 μM were separately introduced for reaction at the same time as the ethycrynic acid/thapsigargin addition, and were present throughout the 24 hr incubation period.

[6] = read-out: EC50, prevent Ca^2+ uptake via uniporter inhibition

In the case of `Nc1ncnc2c1ncn2[C@@H]1O[C@H](COP(=O)(O)OP(=O)(O)O)[C@@H](O)[C@H]1O` [ADP], the EC50 ([1]; read-out: EC50, dissipate ΔΨm under physiological circumstances) is listed as 122000 nM.

For `N#CC(C#N)=NNc1cccc(Cl)c1` [CCCP], the “B-C response, typical values” [2] is listed as ~−1800 RFU and the EC50 ([1]; read-out: EC50, collapse ΔΨm) is listed as 2000 nM.

In the case of `O=C(O)CCCCC1CCSS1` (stereo not drawn) [alpha-lipoic acid, 1,2-dithiolane-3-pentanoic acid], the plasma half-life [3] is given as “less than 1 hour”, the “time to excretion, mainly in the urine” value [3] is given as ≤ 24 h and the “Apoptosis in tumor cell lines” value [4] is given as “induces apoptosis”.

For `CO[C@H](C/C=C\C=C\CC/C=C/C[C@H](C)/C=C/C(=C\C(=O)O)CC(=O)O)/C(C)=C\C=C(/C)C(=O)O` [bongkrekate], the “B-C response, typical values” [2] is given as ~600 RFU, the “% Ca^2+ response score (comparison agents)” value [2] is given as 44% and the EC50 ([1]; read-out: EC50, inhibit Ca^2+-mediated ΔΨm loss) is given as 77 nM.

For `CC[C@H]1/C=C/C=C/C[C@@H](C)[C@H](O)[C@@](C)(O)C(=O)[C@@H](C)[C@H](O)[C@@H](C)C(=O)[C@@H](C)[C@H](O)[C@@H](C)/C=C/C(=O)O[C@@H]2[C@H](C)[C@H](CC1)O[C@]1(CC[C@H](C)[C@H](C[C@@H](C)O)O1)[C@H]2C` [oligomycin], the EC50 ([1]; read-out: EC50, hyperpolarize ΔΨm) is listed as 26 nM.

In the case of `N.N.N.N.N.N.N.N.N.N.N.N.N.N.[Cl-].[Cl-].[Cl-].[Cl-].[Cl-].[Cl-].[O-2].[O-2].[Ru+3].[Ru+3].[Ru+4]` [ruthenium red], the “% Ca^2+ response score (comparison agents)” value [2] is given as 9% and the EC50 [1, 6] is given as 270 nM.

With “IGF-1: positive control in caspase-3 activation assay” the “Reduction of caspase activity” value [5] was 64%.

For RU-360, the EC50 [1, 6] is listed as 12 nM.
